# Tested on: patients with reduced kidney function (eGFR<90 mL/min/1.73 m^2) and hsCRP≥2.0 mg/L
# Assay: Post-hoc ANCHOR analysis, reduced kidney function and hsCRP≥2.0 mg/L (Example 6)
# Format: in vivo, human
# Settings: 4 g/day
# Experimental: CVD-related (e.g., atherogenic) parameters were analyzed in a post-hoc study of 152 patients from the multi-center, placebo-controlled, randomized double-blind, 12-week study described in Example 1. These 152 patients have reduced kidney function (e.g., eGFR<90 mL/min/1.73 m^2 for ≥3 months) and hsCRP≥2.0 mg/L.
# 72 patients were randomized to E-EPA and 80 patients were randomized to placebo. In total, atherogenic parameters were analyzed in all 152 patients, 54% of which were male and 99% of which were white. The mean age of the 152 patients was 64 years old.
# The primary objective of this post-hoc study, was to determine if and how 4 g of daily of >96% E-EPA, compared to placebo, affects patients with reduced kidney function, elevated hsCRP (e.g, hsCRP≥2.0 mg/L), and high triglyceride levels. The secondary objective was to determine if and how 4 g daily of >96% E-EPA, compared to placebo, affected CVD-related parameters in patients with a high risk for CVD and fasting TG levels 200 mg/dL and <500 mg/dL, despite treatment to LDL-C goal on statin therapy. These CVD-parameters include lipid levels, lipoprotein levels, and inflammatory markers, such as TC, LDL-C, HDL-C, vLDL-C, vLDL-TG, RLP-C, non-HDL-C, Apo B, Apo C-III, Lp-PLA, hsCRP, and ox-LDL, and in plasma and RBC EPA concentration. CVD-parameters were analyzed for median difference in percent change from baseline to week 12 in subjects receiving 4 g/day of E-EPA and those receiving the placebo.
# The median difference in lipid/lipoprotein, apolipoprotein, and inflammatory parameters were determined from baseline to week 12 for 4/g day of E-EPA compared to placebo.
compound,measurement,setting,value
"CC/C=C\C/C=C\C/C=C\C/C=C\C/C=C\CCCC(=O)OCC [E-EPA, ethyl eicosapentaenoate]",albumin after 12 weeks,after 12 weeks,4.4 g/dL
same,serum creatinine after 12 weeks,after 12 weeks,0.9 mg/dL
same,albumin before treatment,before the 12 weeks,4.5 g/dL
same,eGFR before treatment,before the 12 weeks,72.4 mL/min/1.73 m^2
same,serum creatinine before treatment,before the 12 weeks,0.9 mg/dL

# Reference: US10966951B2, “Compositions and methods for lowering triglycerides in a subject having reduced kidney function” (Amarin Pharmaceuticals Ireland Limited, priority 2017, dated 2021)
